Values of other authors as cited in patent US20060159628A1, “Nanoparticulate benzothiophene formulations” (Elan Pharma International Limited, priority 2004, published 2006).

Experiments:
MCF-7 cells = conditions: cell culture
uterine tissue = conditions: ovariectomized (OVX) rats

- solubility in water: very slightly soluble
Compound: Cl.O=C(c1ccc(OCCN2CCCCC2)cc1)c1c(-c2ccc(O)cc2)sc2cc(O)ccc12 [Raloxifene hydrochloride, methanone, [6-hydroxy-2-(4-hydroxyphenyl)benzo[b]thien-3-yl]-[4-[2-(1-piperidinyl)ethoxy]phenyl]-, hydrochloride]
- estrogen-dependent proliferation in MCF-7 cells (MCF-7 cells): inhibits estrogen-dependent proliferation
- uterotrophic response (uterine tissue): only minimal uterotrophic response
